The text below walks through data of patent US9732063B2, “Kinase inhibitors” (RESPIVERT LIMITED, priority 2012, dated 2017).

The structures appear in SMILES notation. Like-named read-outs stand apart in the source and are kept apart here.

Assay [1] deals with p38 MAPKα (Homo sapiens (Human), UniProt Q16539). The experiment in a line: p38 MAPKα enzyme inhibition (Z-LYTE FRET, Method 2). It counts as biochemical.
For assay [2], the target named is c-Src (Homo sapiens (Human), UniProt P12931). The experiment in a line: c-Src enzyme inhibition (Z-LYTE FRET). It counts as biochemical. A digest of the protocol: (§1)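 Enzyme was preincubated with test compound (added as 4, 0.4, 0.04 or 0.004 μg/mL solutions) for 2 hr at RT. FRET peptide (8 μM solution) and ATP solution (800 μM for c-Src, 60 μM for Syk) were then added for 1 hr, followed by 1 hr protease development.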
Chain of c-Src (P12931 whole entry, looked up): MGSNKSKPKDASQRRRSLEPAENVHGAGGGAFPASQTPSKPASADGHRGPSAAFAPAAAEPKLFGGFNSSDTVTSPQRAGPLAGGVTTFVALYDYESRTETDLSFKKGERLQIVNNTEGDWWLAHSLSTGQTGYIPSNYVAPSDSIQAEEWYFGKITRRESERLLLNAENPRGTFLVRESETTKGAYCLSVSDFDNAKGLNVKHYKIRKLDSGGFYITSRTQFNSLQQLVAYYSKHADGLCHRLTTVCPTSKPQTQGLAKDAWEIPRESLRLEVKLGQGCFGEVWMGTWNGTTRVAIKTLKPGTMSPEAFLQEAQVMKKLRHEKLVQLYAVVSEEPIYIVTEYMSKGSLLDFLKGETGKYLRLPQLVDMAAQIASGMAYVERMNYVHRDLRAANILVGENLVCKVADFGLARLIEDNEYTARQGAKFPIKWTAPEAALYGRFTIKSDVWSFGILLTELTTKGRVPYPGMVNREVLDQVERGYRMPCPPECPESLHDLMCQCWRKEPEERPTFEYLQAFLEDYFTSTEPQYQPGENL

In assay [3] the target is GSK3α (Homo sapiens (Human), UniProt P49840). The assay can be described thus: GSK 3α enzyme inhibition (Z-LYTE FRET, Method 2). It counts as biochemical. A digest of the protocol: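 Z-LYTE FRET: GSK3α preincubated with compound 2 h at RT, then FRET peptide and ATP added (stocks 8 μM and 40 μM) for 1 h, followed by 1 h protease development. Compound stocks 4–0.004 μg/mL; phosphorylation from coumarin/fluorescein emission ratio.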
Chain of GSK3α (P49840 whole entry): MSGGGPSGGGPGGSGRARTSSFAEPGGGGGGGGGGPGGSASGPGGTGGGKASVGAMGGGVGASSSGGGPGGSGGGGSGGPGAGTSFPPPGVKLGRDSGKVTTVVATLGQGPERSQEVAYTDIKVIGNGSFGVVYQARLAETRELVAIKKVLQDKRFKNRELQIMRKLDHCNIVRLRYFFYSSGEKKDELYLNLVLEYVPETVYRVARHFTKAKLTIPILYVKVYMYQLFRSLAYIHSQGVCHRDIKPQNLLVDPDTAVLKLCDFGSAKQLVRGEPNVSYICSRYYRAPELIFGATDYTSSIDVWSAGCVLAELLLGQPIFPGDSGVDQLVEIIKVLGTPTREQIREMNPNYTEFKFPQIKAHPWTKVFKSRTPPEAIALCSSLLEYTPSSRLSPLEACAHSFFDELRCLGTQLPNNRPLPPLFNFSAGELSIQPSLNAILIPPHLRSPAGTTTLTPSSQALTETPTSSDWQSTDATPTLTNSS

For assay [4], the system named is d-U937 cells. The experiment in a line: LPS-induced TNFα/IL-8 release in d-U937 cells. In kind it is cell-based. As to conditions: Homo sapiens. The procedure: Cells are pre-incubated with final concentrations of test compound for 2 hr and are then stimulated with 0.1 μg/mL of LPS (from E. coli: O111:B4, Sigma) for 4 hr. The supernatant is collected for determination of TNFα and IL-8 concentrations by sandwich ELISA (Duo-set, R&D systems). […] The relative 50% effective concentration (REC50) is determined from the resultant concentration-response curve. The inhibition of IL-8 production is calculated at each concentration of test compound by comparison with vehicle control.

Assay [5] deals with PBMCs. The experiment in a line: LPS-induced TNFα/IL-8 release in PBMC cells. In kind it is cell-based. As to conditions: Homo sapiens. The procedure, abridged:
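TNFα and IL-8 in supernatants were measured by sandwich ELISA after 24 h of 1 ng/mL LPS (E. coli O111:B4) at 37 °C, 5% CO2. Test compounds were added 2 h before LPS to PBMCs from healthy subjects, separated on a density gradient.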

Assay [6] deals with PBMCs. The experiment in a line: IL-2 and IFN gamma release in CD3/CD28 stimulated PBMC cells. In kind it is cell-based. As to conditions: Homo sapiens. A digest of the protocol:
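They were cultured with compound for 3 days. IL-2 and IFN-γ in supernatants were quantified by sandwich ELISA, and IC50 was derived from the dose-response curve.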

The subject of assay [7] is HT29 cells. The experiment in a line: IL-1β-induced IL-8 release in HT29 cells. As to conditions: Homo sapiens. In kind it is cell-based. The procedure:
HT29 cells, a human colon adenocarcinoma cell line, are plated in a 96 well plate (24 hrs) and pre-treated with compounds at the desired concentration for 2 hours before addition of 5 ng/mL of IL-1β (Abcam) for 24 hours. Supernatants are harvested for IL-8 quantification by Sandwich ELISA (Duo-set, R&D System). The IC50 is determined from the dose response curve.

In assay [8] the test system is intestinal mucosa biopsies from the inflamed regions of the colon. The assay can be described thus: Human biopsy assay (intestinal mucosa biopsies of ulcerative colitis patients). It counts as cell-based. As to conditions: 24 hours; for cytokine (IL-1β, IL-6 and IL-8) release compared to the DMSO control: biopsies from ulcerative colitis patients; for IL-1β release / IL-6 release / IL-8 release: 1 μg/ml, biopsies of UC patients, DMSO control = 100%. As for the experimental part:
Intestinal mucosa biopsies are obtained from the inflamed regions of the colon of IBD patients. […] DMSO control or test compounds at the desired concentration are added to the tissue and incubated for 24 hr in the organ culture chamber. The supernatant is harvested for determination of IL-6, IL-8, IL-1β and TNFα levels by R&D ELISA.

In assay [9] the test system is TNBS-induced colitis. As to conditions: for LP inflammation / Ulcer grade: oral gavage BID, conducted over 2 days, mice; for inflammatory cell infiltrate in the reticular and laminar propria zone / ulcer grade and epithelial repair compared to the vehicle control: dosed orally at either 1 or 5 mg/kg.
Procedure: On Day 0 of the study TNBS (200 μL) is administered intra-colonically via a plastic catheter followed by BID dosing of the vehicle, reference or test compound for 2 or 4 days. During the study animals are weighed every day and stool observations are made and recorded as a score, based on stool consistency. At the time of sacrifice on Day 2 (or Day 4) the large intestine is removed and the length and weight recorded. Sections of the colon are taken for either MPO analysis to determine neutrophil infiltration or for histopathology involving scoring to determine disease severity.
The target of assay [10] is Syk (Homo sapiens (Human), UniProt P43405). The experiment in a line: Syk enzyme inhibition (Z-LYTE FRET). It counts as biochemical. A digest of the protocol:
as §1

Where [11] appears, read: dU937, read-out: IC50 Values for Inhibition of Cytokine Release dU937 cells IL-8.
The mark [12] stands for this setting: dU937, read-out: IC50 Values for Inhibition of Cytokine Release dU937 cells TNFα.
Setting [13] is: read-out: IC50 Values for Inhibition of Cytokine Release PBMCs IL-8.
Setting [14] is: read-out: IC50 Values for Inhibition of Cytokine Release PBMCs IFNγ.
Where [15] appears, read: read-out: IC50 Values for Inhibition of Cytokine Release PBMCs IL-2.
Where [16] appears, read: HT-29, read-out: IC50 Values for Inhibition of Cytokine Release HT29 cells IL-8.

Chain of p38 MAPKα (Q16539 whole entry): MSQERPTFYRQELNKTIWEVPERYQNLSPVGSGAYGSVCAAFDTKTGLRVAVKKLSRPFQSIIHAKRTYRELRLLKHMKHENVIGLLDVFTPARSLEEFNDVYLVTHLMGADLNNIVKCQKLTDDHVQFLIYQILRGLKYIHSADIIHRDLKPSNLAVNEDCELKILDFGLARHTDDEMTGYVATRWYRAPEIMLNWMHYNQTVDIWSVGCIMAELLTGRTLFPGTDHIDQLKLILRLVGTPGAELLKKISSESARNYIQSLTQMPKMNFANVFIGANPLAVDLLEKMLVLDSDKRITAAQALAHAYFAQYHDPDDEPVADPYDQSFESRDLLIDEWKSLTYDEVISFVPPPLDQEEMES

As a reminder, the IC50 is the midpoint of a concentration-inhibition curve. As to `COc1cc(Nc2nccc(Oc3ccc(NC(=O)Nc4cc(C(C)(C)C)nn4-c4ccc(C)cc4)c4ccccc34)n2)cc(S(=O)(=O)C2CC2)c1` [Example 47, 1-(3-(tert-Butyl)-1-(p-tolyl)-1H-pyrazol-5-yl)-3-(4-((2-((3-(cyclopropylsulfonyl)-5-methoxy-phenyl)amino)pyrimidin-4-yl)oxy)naphthalen-1-yl)urea], the IC50 in assay [1] was determined as 162 nM; in assay [2], 46 nM; in assay [3], 6.83 µM; in assay [4] (setting [11]), 1.2 nM; in [4] (setting [12]) it was 0.6 nM; in assay [5] (setting [13]), 2.6 nM. The figures for the IC50 in assay [6] (setting [14]), in assay [6] (setting [15]) and in [7] (setting [16]) were 1.1 nM, 95.8 nM and 1.5 nM, respectively. Further, in assay [8] (1 μg/mL), the “cytokine (IL-1β, IL-6 and IL-8) release compared to the DMSO control” value (“cytokine … compared to the DMSO control” below) is recorded as “significantly inhibited”. Moreover, the IL-1β release in [8] was 5 ± 6%. In addition, in assay [8], the IL-6 release turned out to be 17 ± 5%. Besides, in assay [8], the IL-8 release came out at 26 ± 15%. For the same molecule, the values for the LP inflammation in assay [9] (1 mg/kg) and in assay [9] (5 mg/kg) were 2.6 ± 0.3 and 2.1 ± 0.3, respectively. Also, the Ulcer grade in assay [9] (1 mg/kg) is 3.5 ± 0.4; in [9] (5 mg/kg), 2.8 ± 0.4. Besides, the “inflammatory cell infiltrate in the reticular and laminar propria zone” value (“inflammatory cell infiltrate” for short) in assay [9] is listed as “marked reduction”. Besides, the “ulcer grade and epithelial repair compared to the vehicle control” value in assay [9] is “marked improvements”.
Turning to `COCCOCCOCCOc1cc(Nc2nccc(Oc3ccc(NC(=O)Nc4cc(C(C)C)nn4-c4ccc(C)cc4)c4ccccc34)n2)cc(OC)c1` [Example 13, 1-(3-Isopropyl-1-(p-tolyl)-1H-pyrazol-5-yl)-3-(4-((2-((3-methoxy-5-(2-(2-(2-methoxy-ethoxy)ethoxy)ethoxy)phenyl)amino)pyrimidin-4-yl)oxy)naphthalen-1-yl)urea], the IC50 is 65 nM in assay [1]; 10 nM in assay [2]; more than 8.92 µM in assay [3]; 1.4 nM in [4] (setting [11]); 4.4 nM in assay [4] (setting [12]); 2.5 nM in assay [5] (setting [13]). In addition, the half-maximal inhibitory concentration (IC50) in assay [6] (setting [14]) was found to be 3 nM; in [6] (setting [15]), 19.2 nM; in assay [7] (setting [16]), 4.7 nM. Moreover, the “cytokine … compared to the DMSO control” value in assay [8] (0.1 μg/mL (data not shown)) and in assay [8] (1 μg/mL) was “significantly inhibited” throughout. This molecule displayed an IL-1β release in assay [8] of 10 ± 13%. Besides, in assay [8], the IL-6 release is 32 ± 64%. This molecule also showed an IL-8 release in assay [8] of 3 ± 4%. In addition, the LP inflammation in assay [9] (1 mg/kg) amounted to 2.1 ± 0.3; in assay [9] (5 mg/kg), 2.6 ± 0.3. In addition, the Ulcer grade is given as 2.5 ± 0.4 in assay [9] (1 mg/kg) and 3.1 ± 0.3 in assay [9] (5 mg/kg). The “inflammatory cell infiltrate” value in [9] is “marked reduction”. Besides, in [9], the “ulcer grade and epithelial repair compared to the vehicle control” value is given as “marked improvements”.
Take `COCCOCCOCCOc1cc(Nc2cc(Oc3ccc(NC(=O)Nc4cc(C(C)(C)C)nn4-c4ccc(C)cc4)c4ccccc34)ccn2)cc(OC)c1` [Example 56, 1-(3-(tert-Butyl)-1-(p-tolyl)-1H-pyrazol-5-yl)-3-(4-((2-((3-methoxy-5-(2-(2-(2-methoxyethoxy)ethoxy)ethoxy)phenyl)amino)pyridin-4-yl)oxy)naphthalen-1-yl)urea]: the IC50 in assay [1] was found to be 140 nM; in [2] it was 28 nM; in assay [10] it was 43 nM; in assay [4] (setting [11]) it was 1.4 nM; in assay [4] (setting [12]), 0.8 nM; in assay [5] (setting [13]) it was 2.4 nM. In addition, the half-maximal inhibitory concentration (IC50) in assay [5] (read-out: IC50 Values for Inhibition of Cytokine Release PBMCs TNFα) is 1.6 nM; in [6] (setting [14]) it was 2.7 nM; in assay [6] (setting [15]), 152 nM; in assay [7] (setting [16]) it was 4.5 nM. Further, in assay [8] (1 μg/mL), the “cytokine … compared to the DMSO control” value is listed as “significantly inhibited”. This molecule also had an IL-1β release in [8] of 5 ± 1%. This molecule also returned an IL-6 release in assay [8] of 19 ± 18%. The IL-8 release in assay [8] was determined as 3 ± 3%. Also, the results for the LP inflammation in assay [9] (1 mg/kg) and in assay [9] (5 mg/kg) were 2.1 ± 0.3 and 2.4 ± 0.3, respectively. Further, the Ulcer grade in [9] (1 mg/kg) came out at 2.3 ± 0.4; in [9] (5 mg/kg) it was 3.2 ± 0.4. Moreover, in [9], the “inflammatory cell infiltrate” value is on record as “marked reduction”. The “ulcer grade and epithelial repair compared to the vehicle control” value in [9] is reported as “marked improvements”.
For the molecule `COCCOCCOCCOc1cc(Nc2nccc(Oc3ccc(NC(=O)Nc4cc(C(C)(C)C)nn4-c4ccc(OC)nc4)c4ccccc34)n2)cc(OC)c1` [Example 38, 1-(3-(tert-Butyl)-1-(6-methoxypyridin-3-yl)-1H-pyrazol-5-yl)-3-(4-((2-((3-methoxy-5-(2-(2-(2-methoxyethoxyl)ethoxy)ethoxy)phenyl)amino)pyrimidin-4-yl)oxy)naphthalen-1-yl)urea], the IC50 in assay [1] amounted to 132 nM; in assay [2] it was 10 nM; in [10], 25 nM; in assay [3] it was 5.45 µM; in assay [4] (setting [11]) it was 1 nM; in assay [5] (setting [13]), 1.5 nM. In addition, the IC50 in assay [6] (setting [14]) turned out to be 1.3 nM; in assay [6] (setting [15]) it was 40.9 nM; in assay [7] (setting [16]), 1.8 nM.
In the case of `Cc1ccc(-n2nc(C(C)C)cc2NC(=O)Nc2ccc(Oc3ccnc(Nc4cccc(OS(C)(=O)=O)c4)n3)c3ccccc23)cc1` [Example 11, 3-(4-((4-(3-(3-Isopropyl-1-(p-tolyl)-1H-pyrazol-5-yl)ureido)naphthalen-1-yl)oxy)pyrimidin-2-yl)amino)phenyl methanesulfonate], the IC50 in assay [1] is 50 nM; in [2], 20 nM; in assay [10], more than 622 nM; in [3] it was 8.65 µM; in assay [4] (setting [11]), 1.4 nM; in assay [4] (setting [12]), 0.9 nM. Further, the IC50 in assay [5] (setting [13]) is 3.6 nM; in assay [6] (setting [15]) it was 151 nM; in [7] (setting [16]) it was 5.3 nM.
For the molecule `C#Cc1cccc(Nc2nccc(Oc3ccc(NC(=O)Nc4cc(C(C)(C)C)nn4-c4ccc(OC)nc4)c4ccccc34)n2)c1` [Example 1, 1-(3-(tert-Butyl)-1-(6-methoxypyridin-3-yl)-1H-pyrazol-5-yl)-3-(4-((2-((3-ethynylphenyl)-amino)pyrimidin-4-yl)oxy)naphthalen-1-yl)urea], the IC50 is 316 nM in assay [1]; 28 nM in assay [2]; 77 nM in [10]; more than 10 µM in assay [3]; 3.6 nM in [4] (dU937, LPS-stimulated d-U937 cells, method describes REC50 relative to BIRB796, read-out: IC50 Values for Inhibition of Cytokine Release dU937 cells TNFα); 2.1 nM in assay [4] (dU937, LPS-stimulated d-U937 cells, read-out: IC50 Values for Inhibition of Cytokine Release dU937 cells IL-8). The IC50 was found to be 11.5 nM in [5] (LPS-stimulated PBMCs, read-out: IC50 Values for Inhibition of Cytokine Release PBMCs IL-8); 39.8 nM in assay [6] (CD3/CD28 stimulated PBMCs, read-out: IC50 Values for Inhibition of Cytokine Release PBMCs IL-2); 17.4 nM in assay [7] (HT-29, IL-1β-stimulated HT29 cells, read-out: IC50 Values for Inhibition of Cytokine Release HT29 cells IL-8).
For the molecule `COc1ccc(-n2nc(C(C)(C)C)cc2NC(=O)Nc2ccc(Oc3ccnc(Nc4cccc(N=S(C)(C)=O)c4)n3)c3ccccc23)cn1` [Example 2], the half-inhibitory concentration (IC50) in assay [1] came out at 81 nM; in assay [2] it was 8 nM; in assay [10] it was 15 nM; in assay [3], 1.85 µM; in assay [4] (setting [11]), 5.2 nM; in assay [4] (setting [12]) it was 16.5 nM. Also, the IC50 in assay [5] (setting [13]) came out at 5.3 nM; in [6] (setting [15]), 51.1 nM; in assay [7] (setting [16]), 18.5 nM.
